# Data: patent publication US20230218555A1, “CREATINE, ITS DERIVATIVES, COMPOSITIONS AND METHODS OF USE THEREOF” (priority 2021, published 2023)
# Tests used:
# Format in all cases: in vivo, human
# pain in the left ankle = experiment: Example 8: post fracture acute ankle pain; conditions: before the test
# Text: A subject with a history of fractured left ankle seven years earlier, who had worn a plaster cast for several weeks at that time, related that for the past three months disturbing and increasing pain in the left ankle, which was occurring daily and was disturbing their sleep every night. […] They were provided 8 ounces of the above Formulation A (Example 4), to be applied to the painful ankle as needed.
# [1] = tested on: painful swollen right knee; experiment: Example 9: painful swelling of knee joint, three topical formulations; conditions: before the test
# Method: A subject with relentless painful swollen right knee for 3-4 years, not relieved by oral ibuprofen, was tested and rated analgesic efficacy of the three following formulations applied topically to the knee. [table] [table] [table]
# [2] = tested on: post trauma pain in the pinned ankle; experiment: Example 34: ankle pain after surgical insertion of metal screws; conditions: for extent of pain relief: 6% in WEP 244, topical
# Method: A subject with above described post trauma pain at the end of each day experienced painful discomfort in the pinned ankle. […] Complete relief lasted nearly 24 hours. At the end of the next day, the ankle was as painful as the days before. Subject applied 6% C20 in same liquid vehicle.
# psoriatic arthritis = experiment: Example 35: psoriatic arthritis, topical C20 and C26
# Method: A subject with a 40 year history of psoriasis and several years of psoriatic arthritis topically applied the formulations cited in Example 34 above. Formulation of C20 was applied to both hands. […] The formulation of C26 was applied to the left ankle and foot, pain of which was relieved in about 5 minutes and lasted for 4-5 hours.
# [3] = tested on: Rheumatoid Arthritis (RA); experiment: Example 26: rheumatoid arthritis, intralesional injection and topical; conditions: 0.15 ml of 2% aqueous solution/suspension once weekly, 4 injections; over 9 weeks
# Method: A subject, described in an earlier Example, after approximately 4 months of worsening symptoms, and finger joint enlargements on both hands, realized that they were rapidly developing RA, especially when a rheumatoid nodule enlarged over the terminal joint of the left […] finger to a size of approximately 1 cm in diameter, and about 3 mm thick. The nodule was initially injected with 0.15 ml of a 2% aqueous solution/suspension of creatine monohydrate once weekly for 4 injections. […] Thereafter the subject wore a nitrile glove containing a few drops of C15 3-9% dissolved in WP 82 for an hour twice daily on the left hand only. After another 2 months C15 9% in WP 82 was topically applied by means of their wearing nitrile gloves containing the C15 solution for 1 hour twice daily. […] It is intended for the subject to continue topical treatment in one form or another for an indefinite time forward.
# [4] = tested on: psoriatic arthritis, painful, swollen and erythematous right ankle; experiment: Example 15: subcutaneous injection over ankle with psoriatic arthritis; conditions: 0.5 ml of 2% subcutaneous
# Method: A diabetic subject with psoriasis for over 4 decades, and worsening psoriatic arthritis for about 10 years, presented with an acutely painful, swollen and erythematous right ankle. Using a 1 ml insulin syringe with short needle they injected 0.5 ml of the 2% creatine monohydrate as described above into a subcutaneous site of the anterior ankle.
# [5] = tested on: arthritic pain in the right hip joint; experiment: Example 16: subcutaneous injection for hip pain
# Method: A subject who for several weeks was experiencing disabling arthritic pain in the right hip joint, was given two subcutaneous injections of a sterile 2% aqueous solution/suspension of creatine monohydrate over the point of pain, 0.5 ml given first, and 0.6 ml given five days later. […] A third subcutaneous injection of 0.7 ml of the 2% creatine monohydrate solution/suspension was given over the point of joint pain elicited by finger pressure. […] Hip remained pain free for another 2 weeks.
# [6] = tested on: rheumatoid arthritis; rheumatoid nodule; experiment: Example 13: rheumatoid arthritis fingers, nodule injection and glove application; conditions: nodule injected with 0.15 ml of 2% aqueous solution/suspension once weekly, four injections; over 9 weeks
# Method: A subject noted changes in their fingers that appeared to be compatible with the diagnosis of early rheumatoid arthritis in autumn of the year. At about one month later there appeared over the terminal interphalangeal joint of the left third finger a raised inflammatory nodule compatible with the diagnosis of a rheumatoid nodule. The nodule was injected with 0.15 ml of a 2% aqueous solution/suspension of creatine monohydrate once weekly for four injections. […] Thereafter, for a period of one month, the subject wore a nitrile glove containing a few drops N-acetyl ethyl creatine 3% dissolved in water: propylene glycol 8:2 for about an hour twice daily on the left hand only.
# dental pain = experiment: Example 17: post dental surgery pain; conditions: about 1 gram powder in mouth
# Method: A subject had three teeth, #23, 24 and 25 extracted at 12 noon, then had two implants posted immediately after. At about 6 pm, subject started to feel pain in the gum area after lidocaine anesthesia wore off. […] The subject took about 1 gram creatine monohydrate powder into mouth. The powder, as it dissolved in saliva, was rinsed for approximately 5 minutes, then swallowed. The dental pain stopped in about 20 minutes, and relief lasted for 8 hours.
# [7] = tested on: arthritis of cervical and thoracic spine; experiment: Example 14: subcutaneous injection over sites of spinal pain
# Method: A physician subject with continually worsening osteoarthritis of multiple joints for 15-16 years, prepared a sterile aqueous injectable solution/suspension of 2% creatine monohydrate. Under their direction, medical assistants were instructed on techniques to give subcutaneous injections of the 2% aqueous solution/suspension with either a 1 ml syringe with 27 gauge 13 mm needle or with a 1 ml insulin syringe with 30 gauge 8 mm needle.
# Five intervertebral painful sites of arthritis of cervical and thoracic spine, identified by finger pressure, received a single injection of 0.3 ml of the solution.
compound,measurement,setting,value
CC(C)Cc1ccc(C(C)C(=O)O)cc1 (stereo not shown) [ibuprofen],pain relief by oral comparator,pain in the left ankle,"did relieve the pain for several hours, but the pain always recurred"
same,pain relief by oral comparator,[1],not relieved
"CCOC(=O)CN(C)C(N)=NC(=O)c1ccccc1 [Compound C20, N-benzoyl ethyl creatinate]",extent of pain relief,[2],Some relief did occur but not complete as with C26
same,extent of pain relief,psoriatic arthritis; 6% in WEP 244 applied to both hands,completely relieved
same,duration of relief,psoriatic arthritis; both hands,4 h
same,time to pain relief,psoriatic arthritis; both hands,about 2 minutes
"CCOC(=O)CN(C)C(N)=NC(=O)c1ccccc1OC(C)=O [Compound C26, N-2-acetoxybenzoyl ethyl creatinate]",duration of complete relief,[2]; 6% in WEP 244,~24 h
same,time to pain relief,[2]; 6% in WEP 244,≤ 1 min
same,extent of pain relief,[2],completely relieved the pain
same,extent of pain relief,psoriatic arthritis; 6% in WEP 244 applied to left ankle and foot,relieved
same,duration of relief,psoriatic arthritis; left ankle and foot,4 to 5 h
same,time to pain relief,psoriatic arthritis; left ankle and foot,about 5 minutes
CN(CC(=O)O)C(=N)N.O [creatine monohydrate],resolution of rheumatoid nodule,[3],the nodule resolved almost completely
same,edema and erythema of the ankle,[4],completely resolved within a week
same,state of ankle four weeks after the injection,[4],"remained pain free, was of normal appearance, and was completely functional as a normal ankle"
same,time to resolution of ankle pain,[4],about 30 minutes
same,extent of pain relief,"[4]; anterior ankle, person",Ankle pain completely resolved
same,duration of complete relief of pain,[5]; after the first two injections,2 weeks
same,duration pain free,[5]; after third injection,2 weeks
same,time to complete relief of pain,"[5]; third injection, 0.7 ml",3 to 4 h
same,extent of pain relief,"[5]; third subcutaneous injection, 0.7 ml of 2%",Complete relieve of pain
same,extent of pain relief,"[5]; two subcutaneous injections of 2% solution/suspension, 0.5 ml and 0.6 ml five days later, person",Complete relief of pain
same,resolution of rheumatoid nodule,[6],the nodule resolved almost completely
same,duration of relief,dental pain,8 h
same,time until dental pain stopped,"dental pain; rinsed approximately 5 minutes, swallowed, person",about 20 minutes
same,extent of pain relief,[7]; single subcutaneous injection of 0.3 ml of 2% aqueous solution/suspension at five intervertebral sites,All sites/areas became pain free
same,time to pain free after injection,[7]; subcutaneous 0.3 ml of 2% per site,2 to 3 h
same,duration pain free,"[7]; subcutaneous 0.3 ml of 2% per site, no further therapy",7 weeks
